“And” between values parts separate entries of the source, which are not always exact repeats. Identical values can stand only once. “Also recorded” adds a separate entry of the source.
Experiments:
[1] = tested on: Pt-GG adducts in DNA; assay: In vivo screening for cis-platin uptake inhibitors and DPH co-administration, ICA of Pt-GG adducts; set-up: species or system mice
Experimental: (§1) The sacrificed animals were immediately dissected. Kidneys and lungs were submerged in embedding medium (Tissue-Tek O.C.T. Compound) and frozen in liquid nitrogen. Cochleae were dissected and fixed by intralabyrinthine perfusion with Carnoy's solution (3 hours; for DNA adduct staining) or with formaldehyde (4 % in PBS; 1 hour; for OCT protein staining). Cochleae were decalcified in EDTA solution (10 % w/v in PBS) for 3 days and then placed in sucrose solutions (5 % in PBS for 12 hours and 15 % in PBS for 5 hours). After that samples were imbedded in Tissue-Tek medium, frozen and cryosections of 10 µm cut.
(§2) Frozen tissue sections of the inner ear or kidneys on ImmunoSelect slides were fixed in methanol at -20°C for at least 2 hours or overnight and then rehydrated for 10 minutes in PBS, at room temperature. To provide better antibody penetration in the tissue structures the samples underwent alkaline permeabilisation of cytoplasmic and nuclear membranes for 5 minutes at 0°C, followed by washing in PBS at room temperature for 5 minutes. The proteolytic cleavage of cytoplasmic and nuclear proteins was performed in two steps. At first, a pre-warmed pepsin solution (60 µg /ml for cell culture or 100 µg/ml for tissue sections in PBS/HCl) was applied onto the tissue sections and incubated for 10 minutes at 37°C in a humidified chamber. The incubation with pepsin was followed by washing in PBS for 10 minutes at room temperature. In a second step tissue sections were incubated with pre-warmed proteinase K solution (40 µg/ml for cell cultures or 50-100 µg /ml for tissue sections in proteinase K buffer) for 10 minutes at 37°C in a humidified chamber. Subsequently the sections were washed in 0.2 % glycine in PBS for 10 minutes at room temperature. Non-specific binding of the antibodies was inhibited by incubation with a blocking solution of 1 % casein in PBS for 30 minutes at room temperature. The samples were then incubated with a monoclonal antibody (R-C18, Liedert et al., 2006) specific for Pt-GG adducts in DNA (0.1 µg/ml in 0.1 % BSA/PBS) over night at 4°C in the humidified chamber. Subsequently, the slides were washed in 0.05 % Tween 20 in PBS for 5 minutes at room temperature and then in PBS for 5 minutes. The incubation with secondary Cy3-labeled rabbit anti-(rat Ig) antibodies, was performed (0.2 µg/ml in 0.1 % BSA/PBS) for 60 minutes at 37°C in the humidified chamber, followed by washing in 0.05 % Tween 20 in PBS for 5 minutes at room temperature and then in PBS for 5 minutes. The nuclear DNA was counterstained with DAPI (1 µg/ml in PBS) for 30 minutes at room temperature. The slides were then washed in PBS. Finally, the samples were embedded with a densification compound "[…]". The quantification of immuno- and DNA-fluorescence was performed by means of a microscope-coupled digital image analysis system ACAS 6.0 Cytometry Analysis System. Adduct levels in the nuclear DNA of individual cells were calculated by normalizing antibody-derived fluorescence signals to the corresponding DNA content of the same nucleus, and were expressed as arbitrary fluorescence units (AFUs). Data were assigned to specific cell types as determined by histochemistry.
The mice were separated into two groups for pretreatment with low or high doses of the test compounds. […] The low dose group received half the dose of the high dose group (50, 50, 30 or 10 mg/kg, respectively). […] Cochleae and kidneys were dissected for immunostaining and ICA analyses of Pt-GG adduct levels in specific cell types (Figure 8). In tissue sections from mice pretreated with quinine or butylscopolamine no inhibition of DNA platination was observed, independent of the dosing, in either of the three target cell types (renal tubulus epithelium cells (Figure 8 A), cochlear marginal cells (Figure 8B) and outer hair cells (Figure 8 C)). […]

[2] = tested on: human cancer cell lines established from tumors (lung, bladder, testis); assay: Co-application of cis-platin and DPH to cancer cell lines: DNA adducts by ICA; format: cell-based; conditions: cis-platin alone or in combination with DPH
[3] = tested on: human cancer cell lines established from tumors (lung, bladder, testis); assay: Co-application of cis-platin and DPH to cancer cell lines: apoptosis by Annexin V staining and FACS analysis; format: cell-based; conditions: cis-platin alone or in combination with DPH
[4] = tested on: Kras/p53 deficient mice; assay: Survival upon repetitive cis-platin treatment; format: in vivo; conditions: repetitive cis-platin 9 mg/kg in combination with DPH 50 mg/kg versus cis-platin alone (Figure 16)
[5] = tested on: Pt-GG adducts in DNA; assay: Immunocytological assay (ICA) of Pt-GG adducts in kidney and cochlea cells after cis-platin treatment; format: in vivo, mice
Experimental: as §1, §2
24 hours later, the inner ears and kidneys were dissected, kidneys were frozen immediately and cochleae were fixed and decalcified. Cryosections (10 µm) prepared from the tissues were placed onto specific adhesion slides. Slides were then immunostained for the visualization of platinum-guanine-guanine (Pt-GG) intrastrand adducts in the nuclei of individual cells by using the adduct-specific monoclonal antibody R-C18 in an immunocytological assay (ICA) (Liedert et al., 2006). The tissue sections were then stained with a secondary Cy3-labeled goat-anti-rat antibody (Cy3), counterstained with DAPI for nuclear DNA, and analyzed in the fluorescence microscope (Figure 1). Serial sections from the same tissues were stained for morphological orientation with hematoxyline and eosin (H&E). […]

[6] = tested on: Pt-GG adducts in DNA; assay: ICA of Pt-GG adducts in cochlear cells of XPA-/- versus wild type mice; format: in vivo
Experimental: Frozen tissue sections of the inner ear or kidneys on ImmunoSelect slides were fixed in methanol at -20°C for at least 2 hours or overnight and then rehydrated for 10 minutes in PBS, at room temperature. To provide better antibody penetration in the tissue structures the samples underwent alkaline permeabilisation of cytoplasmic and nuclear membranes for 5 minutes at 0°C, followed by washing in PBS at room temperature for 5 minutes. The proteolytic cleavage of cytoplasmic and nuclear proteins was performed in two steps. At first, a pre-warmed pepsin solution (60 µg /ml for cell culture or 100 µg/ml for tissue sections in PBS/HCl) was applied onto the tissue sections and incubated for 10 minutes at 37°C in a humidified chamber. The incubation with pepsin was followed by washing in PBS for 10 minutes at room temperature. […] The quantification of immuno- and DNA-fluorescence was performed by means of a microscope-coupled digital image analysis system ACAS 6.0 Cytometry Analysis System. Adduct levels in the nuclear DNA of individual cells were calculated by normalizing antibody-derived fluorescence signals to the corresponding DNA content of the same nucleus, and were expressed as arbitrary fluorescence units (AFUs). Data were assigned to specific cell types as determined by histochemistry. […]

[7] = tested on: hearing capability; assay: BAER hearing test in XPA-/- and wild type mice after low dose cis-platin; conditions: cis-platin cumulative dose 3.5 mg/kg within two weeks, NER-deficient XPA-/- mice
[8] = DPH 0 to 57 mg/kg i.p. 30 minutes prior to cis-platin 10 mg/kg (Figure 9)
[9] = DPH 57 mg/kg 30 minutes before cis-platin 12.5 mg/kg, 2, 16, 48, 72 hours
[10] = high dose of 60 mg/kg i.p. 1 h before cis-platin 10 mg/kg, 24 h
[11] = cis-platin 10 mg/kg i.p., cochlea, 24 h (Figure 3 B)
[12] = cis-platin 10 mg/kg i.p., kidney
[13] = cis-platin 10 mg/kg i.p., kidney, 24 h (Figure 3 A)

For `CN(C)CCOC(c1ccccc1)c1ccccc1` [DPH, diphenhydramine], the “adduct accumulation in proximal tubule cells and marginal cells” value [1, 8] was “dose-dependent inhibition”, the “adduct levels in distal tubule cells and basal and intermediate cells of the stria vascularis” value [1, 8] was “No significant alterations” and the “DNA platination in marginal and outer hair cells versus cis-platin alone, all time points” value [1, 9] was “drastically decreased”. The “capability to repair the DNA damage” value [1, 9] was “no obvious differences”, the “inhibition of the formation of Pt-adducts in outer hair cells and marginal cells” value ([1]; DPH along with cis-platin (description)) was “about 70%” and the “formation of Pt-adducts in dorsal root ganglion (DRG) neurons” value ([1]; cis-platin 15 mg/kg with DPH 50 mg/kg, 24 h (Figure 9 C)) was “inhibited; also recorded: significantly reduced”. For the same compound, the “shielding from DNA damage, cochlear marginal cells” value [1, 10] was 70%, the “shielding from DNA damage, outer hair cells” value [1, 10] was “about 50%” and the “shielding from DNA damage, proximal tubule cells” value [1, 10] was 75%. For the same compound, the “adduct levels in other cell types of the inner ear” value ([1]; repetitive cis-platin 5 mg/kg every second day plus DPH 57 mg/kg) was “remained unchanged”, the “adducts in target cells of kidney and inner ear versus cis-platin alone group” value ([1]; repetitive cis-platin 5 mg/kg every second day plus DPH 57 mg/kg (Figure 12)) was “by far less adducts” and the “effect on the formation of DNA adducts (ICA)” value [2] was “no inhibitory effect”. For the same compound, the “effect on the induction of apoptosis” value [3] was “no inhibitory effect” and the survival [4] was “improved survival rates”.

For `N.N.[Cl][Pt][Cl]` [cis-platin, cis-diaminedichloro-platinum(II)], the “levels of Pt-GG adducts, OHC vs. adjacent cells in the organ of Corti” value ([5]; cis-platin 10 mg/kg i.p.) was 11 fold, the “levels of Pt-GG adducts, marginal cells compared to other cell types in the stria vascularis” value ([5]; cis-platin 10 mg/kg i.p.) was 5 fold and the “levels of Pt-GG adducts, adjacent cells in the organ of Corti” value [5, 11] was 1.19 AFUs. For the same compound, the “levels of Pt-GG adducts, other cell types in the stria vascularis” value [5, 11] was 2.08 AFUs, the “levels of Pt-GG adducts, OHC (outer hair cells)” value ([5]; cis-platin 10 mg/kg i.p., cochlea, organ of Corti, 24 h (Figure 3 B)) was 13.26 AFUs and the “levels of Pt-GG adducts, marginal cells” value ([5]; cis-platin 10 mg/kg i.p., cochlea, stria vascularis, 24 h (Figure 3 B)) was 9,85 AFUs. For the same compound, the “platination level, distal tubular cells versus glomerulus cells” value [5, 12] was “twice as high”, the “platination level, proximal tubular cells versus distal tubular cells” value [5, 12] was 7 fold and the “platination level (Pt-GG adducts), distal tubular cells” value [5, 13] was 2.61 AFUs. The “platination level (Pt-GG adducts), glomerulus cells” value [5, 13] was 0.97 AFUs, the “platination level (Pt-GG adducts), proximal tubular cells” value [5, 13] was 18.97 AFUs and the “adduct levels of non-marginal cells of the stria vascularis, lower than marginal cells” value ([5]; cis-platin 10 mg/kg single dose, 24 h, turns of the cochlea (Figure 4)) was 10 fold. For the same compound, the “adduct levels in inner ear cis-platin target cells, XPA -/- mice versus wild type littermates” value ([6]; cis-platin cumulated dose 3.5 mg/kg (Figure 7 B legend)) was “more than 3 times”, the “levels of DNA damage in marginal cells, XPA-/- mice compared to wild type littermates” value ([6]; cis-platin cumulative dose 3.5 mg/kg (Figure 7 B)) was “about 2.7 fold” and the “reduction of hearing capability (BAER), XPA-/- mice” value [7] was 45% and ~50%.
